Common to all, as to format: cell-based
One assay deals with mGlu4 (Homo sapiens (Human), UniProt Q14833). Nature of the assay: Agonist activity on mGlu4 in transfected HEK293 cells, intracellular calcium release (Fluo4-AM). The settings on record: transfected cells, calcium release; read-out: mGlu4 EC50 μM (n). The text has this:
(§1) The EC50's are compared to those of L-AP4 (L-2-amino-4-phosphonobutyric acid) used as a reference.
(§2) Metabotropic glutamate receptors were transiently transfected in HEK293 cells by electroporation as described elsewhere (Brabet I. et al., 1998) and plated in 96-well microplates. The high affinity glutamate transporter EAAC1 was co-transfected with the receptor in order to avoid any influence of glutamate released by the cells in the assay medium. In the experiments carried out by the inventors, Group-III mGluRs were co-transfected with a chimeric G-protein which couples the activation of the receptor to the phospholipase-C (PLC) pathway. Thus receptor activation induces production of inositol phosphate (IP) which in turn induces intracellular Ca^2+ release. Receptor activity was then determined by measurement of the IP production or Ca release as already described (Goudet C. et al., PNAS 2004). For intracellular calcium measurements, cells expressing mGluRs were loaded with Ca2+-sensitive fluorescent dye Fluo-4 AM (Invitrogen, Cergy-Pontoise, France) dissolved in Hanks' balanced salt solution (HBSS, Invitrogen, Cergy-Pontoise, France) containing 2.5 mM Probenicid (Sigma-Aldrich Chemie, Saint-Quentin Fallavier, France) for 1 h at 37° C., then washed and incubated with HBSS containing probenecid. A drug plate was prepared with the various concentrations of agonist to be tested and drug solution was added in each well after 20 s of recording. Fluorescence signals (excitation 485 nm, emission 525 nm) were measured by using the fluorescence microplate reader Flexstation III (Molecular Devices, Saint-Grégoire, France) at sampling intervals of 1.5 s for 60 s. All points are realized in triplicate.
(§3) The dose-response curves were fitted using the GraphPad Prism program and the following equation: y=[(ymax−ymin)/(1+(x/EC50)n)]+ymin where EC50 is the concentration of the compound necessary to obtain the half maximal effect and n is the Hill coefficient.
On the technique in general: Calcium flux is commonly read through the fluorescence of an indicator in the cells.

Another assay addresses mGlu8 (Homo sapiens (Human), UniProt O00222). The experiment in a line: Agonist activity on mGlu8 in transfected HEK293 cells, intracellular calcium release (Fluo4-AM). The settings on record: for EC50: transfected cells, calcium release, read-out: mGlu8 EC50 μM (n); for mGlu8/4 EC50 ratio: ratio of mGlu8 EC50 to mGlu4 EC50.
Description: as §1, §2, §3

The target in assay [1] is mGlu7 (Homo sapiens (Human), UniProt Q14831). The experiment in a line: Agonist activity on mGlu7 in transfected HEK293 cells, intracellular calcium release (Fluo4-AM). The note with it: transfected cells, calcium release; read-out: mGlu7 EC50 μM (n).
Description: as §1, §2, §3

Assay [2] has as its system mGlu7. Described as above. The note with it: ratio of mGlu7 EC50 to mGlu4 EC50.
Description: as §1, §2, §3

Where a name gives a salt, the structure may show the parent alone. Some results are limits rather than exact numbers.

As usually defined, the EC50 is the concentration needed to bring the measured effect to its halfway point.

Chain of mGlu8 (O00222 34-908): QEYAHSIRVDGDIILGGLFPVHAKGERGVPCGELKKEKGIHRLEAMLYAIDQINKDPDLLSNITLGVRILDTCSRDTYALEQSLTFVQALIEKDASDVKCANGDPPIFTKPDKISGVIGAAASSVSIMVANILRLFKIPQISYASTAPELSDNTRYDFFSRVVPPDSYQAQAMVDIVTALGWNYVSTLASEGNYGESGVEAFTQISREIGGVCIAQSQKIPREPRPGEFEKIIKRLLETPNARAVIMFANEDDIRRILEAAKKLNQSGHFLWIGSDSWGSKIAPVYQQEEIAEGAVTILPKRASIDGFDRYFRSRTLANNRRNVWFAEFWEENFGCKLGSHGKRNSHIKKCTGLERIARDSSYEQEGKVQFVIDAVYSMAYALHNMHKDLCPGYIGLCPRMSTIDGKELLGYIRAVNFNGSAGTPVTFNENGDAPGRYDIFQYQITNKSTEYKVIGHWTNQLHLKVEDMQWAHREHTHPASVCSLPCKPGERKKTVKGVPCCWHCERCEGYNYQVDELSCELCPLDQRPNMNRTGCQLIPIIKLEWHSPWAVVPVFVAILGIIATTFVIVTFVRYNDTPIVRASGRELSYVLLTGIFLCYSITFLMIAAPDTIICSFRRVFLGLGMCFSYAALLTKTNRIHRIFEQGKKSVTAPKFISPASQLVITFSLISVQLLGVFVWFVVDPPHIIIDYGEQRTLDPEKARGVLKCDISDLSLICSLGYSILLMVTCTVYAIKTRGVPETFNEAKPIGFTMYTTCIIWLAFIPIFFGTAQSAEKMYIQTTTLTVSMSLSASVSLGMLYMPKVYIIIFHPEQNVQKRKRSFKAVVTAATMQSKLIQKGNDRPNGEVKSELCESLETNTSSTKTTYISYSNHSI
Chain of mGlu4 (Q14833 33-912): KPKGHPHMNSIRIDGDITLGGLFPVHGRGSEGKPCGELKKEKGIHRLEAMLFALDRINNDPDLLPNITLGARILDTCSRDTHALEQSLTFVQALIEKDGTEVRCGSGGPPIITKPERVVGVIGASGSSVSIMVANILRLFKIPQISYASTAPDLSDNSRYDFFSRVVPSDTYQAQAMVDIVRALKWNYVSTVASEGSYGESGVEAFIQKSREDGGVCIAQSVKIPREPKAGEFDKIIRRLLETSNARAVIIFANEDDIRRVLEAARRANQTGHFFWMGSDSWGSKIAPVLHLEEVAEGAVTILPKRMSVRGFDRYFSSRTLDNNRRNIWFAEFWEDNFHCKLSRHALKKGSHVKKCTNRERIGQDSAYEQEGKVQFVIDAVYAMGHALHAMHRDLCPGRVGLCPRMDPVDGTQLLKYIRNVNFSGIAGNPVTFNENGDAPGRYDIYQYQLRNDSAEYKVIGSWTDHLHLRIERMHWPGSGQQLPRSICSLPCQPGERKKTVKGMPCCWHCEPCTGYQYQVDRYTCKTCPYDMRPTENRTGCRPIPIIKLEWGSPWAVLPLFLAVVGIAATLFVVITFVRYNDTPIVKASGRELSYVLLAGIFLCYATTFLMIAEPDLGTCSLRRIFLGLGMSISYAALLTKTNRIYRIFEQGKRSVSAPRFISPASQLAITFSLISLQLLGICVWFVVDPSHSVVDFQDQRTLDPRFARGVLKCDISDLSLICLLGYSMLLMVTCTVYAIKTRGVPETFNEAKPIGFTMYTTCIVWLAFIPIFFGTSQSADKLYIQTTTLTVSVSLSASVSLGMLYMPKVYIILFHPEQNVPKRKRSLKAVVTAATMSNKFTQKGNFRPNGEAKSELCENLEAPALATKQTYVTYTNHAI
Chain of mGlu7 (Homo sapiens (Human), UniProt Q14831) (Q14831 35-915): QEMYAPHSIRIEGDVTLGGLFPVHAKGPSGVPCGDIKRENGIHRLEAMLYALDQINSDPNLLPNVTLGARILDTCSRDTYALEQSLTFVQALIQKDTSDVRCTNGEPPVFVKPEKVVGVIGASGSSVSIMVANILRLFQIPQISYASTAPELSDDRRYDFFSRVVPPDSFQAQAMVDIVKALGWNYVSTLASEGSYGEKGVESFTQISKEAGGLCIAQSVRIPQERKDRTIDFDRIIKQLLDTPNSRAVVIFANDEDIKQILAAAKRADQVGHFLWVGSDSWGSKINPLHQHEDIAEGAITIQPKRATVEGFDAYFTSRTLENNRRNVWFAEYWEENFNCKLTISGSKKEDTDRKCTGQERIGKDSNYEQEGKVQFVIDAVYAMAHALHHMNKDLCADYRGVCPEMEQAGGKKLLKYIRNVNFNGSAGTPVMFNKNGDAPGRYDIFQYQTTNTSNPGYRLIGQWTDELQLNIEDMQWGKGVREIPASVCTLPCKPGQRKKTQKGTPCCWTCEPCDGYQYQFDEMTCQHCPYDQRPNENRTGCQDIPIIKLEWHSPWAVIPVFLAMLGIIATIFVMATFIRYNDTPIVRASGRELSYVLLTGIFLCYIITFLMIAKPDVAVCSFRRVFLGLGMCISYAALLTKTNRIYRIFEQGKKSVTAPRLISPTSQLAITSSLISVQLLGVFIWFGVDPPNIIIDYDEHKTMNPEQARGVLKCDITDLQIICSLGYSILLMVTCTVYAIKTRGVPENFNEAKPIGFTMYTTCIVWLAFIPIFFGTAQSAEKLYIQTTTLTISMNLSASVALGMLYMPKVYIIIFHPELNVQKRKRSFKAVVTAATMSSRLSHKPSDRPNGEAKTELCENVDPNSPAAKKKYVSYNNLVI

For the compound `N[C@@H](CCP(=O)(O)C(O)c1cccc(OCC(=O)O)c1)C(=O)O` (mixture of isomers) [Derivative 15, [((3S)-3-Amino-3-carboxy)propyl][(3-(carboxymethoxy)phenyl)hydroxymethyl]phosphinic Acid], the EC50 on mGlu4 stood at 7.6 ± 2 µM; at mGlu8, 71 ± 25 µM.

In the case of `N[C@@H](CCP(=O)(O)C(O)c1cccc(OCC(=O)O)c1)C(=O)O` (single isomer, unassigned) [Derivative 16, Hydrochloride], the EC50 at mGlu4 came to 4.9 ± 1 µM; on mGlu8, 36 ± 18 µM.

Turning to `N[C@@H](CCP(=O)(O)C(O)c1cccc(OCC(=O)O)c1)C(=O)O` (single isomer, unassigned) [Derivative 17, Hydrochloride], the EC50 came out at 13 ± 2.9 µM on mGlu4 and 29.3 ± 7.2 µM on mGlu8.

Turning to `CCOc1cc(C(O)P(=O)(O)CC[C@H](N)C(=O)O)ccc1OCC(=O)O` (stereo in doubt) [Derivative 19, 2-amino-4-(((4-(carboxymethoxy)-3-ethoxyphenyl)(hydroxy)methyl)(hydroxy)phosphoryl)butanoic acid], the results for the EC50 on mGlu4, at mGlu8 and on mGlu7 [1] were 1.67 ± 0.33 µM, 25 ± 6 µM and 60.2 ± 10.6 µM, respectively. Further, the “mGlu8/4 EC50 ratio” value at mGlu8 amounted to 15. In the assay with mGlu7 [2], the “mGlu7/4 EC50 ratio” value was 36.

For the compound `N[C@@H](CCP(=O)(O)C(O)c1ccc(OCC(=O)O)c(OC(F)(F)F)c1)C(=O)O` (stereo in doubt) [Derivative 20, 2-amino-4-(((4-(carboxymethoxy)-3-(trifluoromethoxy)phenyl)(hydroxy)methyl)(hydroxy)phosphoryl)butanoic acid], the EC50 on mGlu4 worked out at 0.06 ± 0.02 µM; on mGlu8, 55.6 ± 12 µM; at mGlu7 [1], 1.97 ± 0.34 µM. Moreover, the “mGlu8/4 EC50 ratio” value on mGlu8 was determined as 927. The “mGlu7/4 EC50 ratio” value with mGlu7 [2] is 33.

`N[C@@H](CCP(=O)(O)C(O)c1ccc(OCC(=O)O)c(C(F)(F)F)c1)C(=O)O` (stereo in doubt) [Derivative 21, 2-amino-4-(((4-(carboxymethoxy)-3-(trifluoromethyl)phenyl)(hydroxy)methyl)(hydroxy)phosphoryl)butanoic acid]: the EC50 at mGlu4 stood at 0.9 ± 0.06 µM; at mGlu8, 6.86 ± 1.83 µM; at mGlu7 [1] it was 35.5 ± 4 µM. Besides, the “mGlu8/4 EC50 ratio” value at mGlu8 worked out at 8. Also, in the assay with mGlu7 [2], the “mGlu7/4 EC50 ratio” value came to 39.

Turning to `N[C@@H](CCP(=O)(O)C(O)c1ccc(OCC(=O)O)c(O)c1)C(=O)O` (stereo in doubt) [Derivative 22, 2-amino-4-(((4-(carboxymethoxy)-3-hydroxyphenyl)(hydroxy)methyl)(hydroxy)phosphoryl)butanoic acid], the EC50 on mGlu4 worked out at 1.1 ± 0.4 µM; on mGlu8 it was 34 ± 19 µM; on mGlu7 [1], 15 ± 3.6 µM. At mGlu8, the “mGlu8/4 EC50 ratio” value is recorded as 31. Besides, the “mGlu7/4 EC50 ratio” value in the assay on mGlu7 [2] came to 14.

Take `N[C@@H](CCP(=O)(O)C(O)c1ccc(OCC(=O)O)c(C(=O)O)c1)C(=O)O` (stereo in doubt) [Derivative 23, 5-(((3-amino-3-carboxypropyl)(hydroxy)phosphoryl)(hydroxy)methyl)-2-(carboxymethoxy)benzoic acid]: the EC50 came out at 4 ± 0.6 µM at mGlu4, 7.4 ± 1.2 µM at mGlu8 and 65 ± 13 µM on mGlu7 [1]. At mGlu8, the “mGlu8/4 EC50 ratio” value is reported as 1.9. In the assay with mGlu7 [2], the “mGlu7/4 EC50 ratio” value is on record as 16.

Consider `N[C@@H](CCP(=O)(O)C(O)c1ccc(OCC(=O)O)c([N+](=O)[O-])c1)C(=O)O` (stereo in doubt) [Derivative 24, 2-amino-4-(((4-(carboxymethoxy)-3-nitrophenyl)(hydroxy)methyl)(hydroxy)phosphoryl)butanoic acid], for which the EC50 at mGlu4 is 0.26 ± 0.07 µM; at mGlu8 it was 1.59 ± 0.82 µM; on mGlu7 [1], 11.2 ± 3.9 µM. Also, the “mGlu8/4 EC50 ratio” value on mGlu8 was determined as 6.1. In addition, the “mGlu7/4 EC50 ratio” value with mGlu7 [2] came to 43.

Turning to `N[C@@H](CCP(=O)(O)C(O)c1ccc(SCC(=O)O)c([N+](=O)[O-])c1)C(=O)O` (stereo in doubt) [Derivative 25, 2-amino-4-(((4-(carboxymethylthio)-3-nitrophenyl)(hydroxy)methyl)(hydroxy)phosphoryl)butanoic acid], the EC50 amounted to 1.1 ± 0.36 µM at mGlu4, 11.5 µM at mGlu8 and 15.2 ± 3.9 µM on mGlu7 [1]. Besides, at mGlu8, the “mGlu8/4 EC50 ratio” value was determined as 10.4. Besides, the “mGlu7/4 EC50 ratio” value with mGlu7 [2] amounted to 1.4.

As to `N[C@@H](CCP(=O)(O)C(O)c1ccc(SCC(=O)O)cc1)C(=O)O` (stereo in doubt) [Derivative 26, 2-amino-4-(((4-(carboxymethylthio)phenyl)(hydroxy)methyl)(hydroxy)phosphoryl)butanoic acid], the EC50 on mGlu4 was found to be 0.21 ± 0.04 µM; at mGlu8, 1.23 ± 0.48 µM; at mGlu7 [1], 13 ± 1.1 µM. Moreover, the “mGlu8/4 EC50 ratio” value on mGlu8 came out at 5.9. Besides, the “mGlu7/4 EC50 ratio” value in the assay with mGlu7 [2] came out at 62.

In the case of `CC(Oc1ccc(C(O)P(=O)(O)CC[C@H](N)C(=O)O)cc1)C(=O)O` (stereo in doubt) [Derivative 29, 2-amino-4-(((4-(1-carboxyethoxy)phenyl)(hydroxy)methyl)(hydroxy)phosphoryl)butanoic acid], the values for the EC50 on mGlu4, at mGlu8 and on mGlu7 [1] were 0.95 ± 0.16 µM, 14.3 ± 5.6 µM and 103 ± 7 µM, respectively. In addition, the “mGlu8/4 EC50 ratio” value on mGlu8 is given as 15. The “mGlu7/4 EC50 ratio” value with mGlu7 [2] turned out to be 109.

As for `COc1cc(CP(=O)(O)CC[C@H](N)C(=O)O)ccc1OCC(=O)O` (stereo in doubt) [Derivative 31, 2-amino-4-((4-(carboxymethoxy)-3-methoxybenzyl)(hydroxy)phosphoryl)butanoic acid], the EC50 on mGlu4 stood at 7.41 ± 1.55 µM. Besides, at mGlu8, the “mGlu8/4 EC50 ratio” value is greater than 40 and the EC50 was greater than 300 µM.

Regarding `N[C@@H](CCP(=O)(O)Cc1ccc(OCC(=O)O)c(OC(F)(F)F)c1)C(=O)O` (stereo in doubt) [Derivative 32, 2-amino-4-((4-(carboxymethoxy)-3-(trifluoromethoxy)benzyl)(hydroxy)phosphoryl)butanoic acid], the EC50 at mGlu4 was 1.22 ± 0.15 µM; on mGlu8, greater than 100 µM; at mGlu7 [1] it was 16.2 ± 3.5 µM. Besides, the “mGlu8/4 EC50 ratio” value on mGlu8 is greater than 82. For the same compound, the “mGlu7/4 EC50 ratio” value with mGlu7 [2] was determined as 13.

For the compound `N[C@@H](CCP(=O)(O)Cc1ccc(OCC(=O)O)c(C(F)(F)F)c1)C(=O)O` (stereo in doubt) [Derivative 33, 2-amino-4-((4-(carboxymethoxy)-3-(trifluoromethyl)benzyl)(hydroxy)phosphoryl)butanoic acid], the results for the EC50 at mGlu4, at mGlu8 and on mGlu7 [1] were 62.5 ± 20.5 µM, greater than 100 µM and 301 ± 73 µM, respectively. Further, at mGlu8, the “mGlu8/4 EC50 ratio” value turned out to be 1.6. Besides, the “mGlu7/4 EC50 ratio” value with mGlu7 [2] was found to be 5.

For `COc1cc(CP(=O)(O)CC[C@H](N)C(=O)O)cc(F)c1OCC(=O)O` (stereo in doubt) [Derivative 34, 2-amino-4-((4-(carboxymethoxy)-3-fluoro-5-methoxybenzyl)(hydroxy)phosphoryl)butanoic acid], the EC50 at mGlu4 is 3.09 ± 0.62 µM; at mGlu8, 9.17 ± 2.37 µM; at mGlu7 [1], 232 ± 85 µM. The “mGlu8/4 EC50 ratio” value on mGlu8 is 3. Besides, the “mGlu7/4 EC50 ratio” value in the assay on mGlu7 [2] is recorded as 75.

As for `N[C@@H](CCP(=O)(O)C(O)c1cccc(OCC(=O)O)c1)C(=O)O` (stereo partly drawn) [Derivative 15, [((3S)-3-Amino-3-carboxy)propyl][(3-(carboxymethoxy)phenyl)hydroxymethyl]phosphinic Acid], on mGlu8, the “mGlu8/4 EC50 ratio” value is recorded as 9.4.

As to `N[C@@H](CCP(=O)(O)C(O)c1cccc(OCC(=O)O)c1)C(=O)O` (stereo partly drawn) [Derivative 16, [((3S)-3-Ammonium-3-carboxy)propyl][(3-(carboxymethoxy)phenyl)hydroxymethyl]phosphinic Acid Hydrochloride], the “mGlu8/4 EC50 ratio” value at mGlu8 (Hydrochloride) was found to be 7.4.

For `N[C@@H](CCP(=O)(O)C(O)c1cccc(OCC(=O)O)c1)C(=O)O` (stereo partly drawn) [Derivative 17, [((3S)-3-Ammonium-3-carboxy)propyl][(3-(carboxymethoxy)phenyl)hydroxymethyl]phosphinic Acid Hydrochloride], the “mGlu8/4 EC50 ratio” value at mGlu8 (Hydrochloride) is listed as 2.3.

For the compound `N[C@@H](CCP(=O)(O)C(O)c1ccc(OCC(=O)O)c(OCC(=O)O)c1)C(=O)O` (stereo partly drawn) [Derivative 18, [((3S)-3-Amino-3-carboxy)propyl][(3,4-di(carboxymethoxy)phenyl)hydroxymethyl]phosphinic Acid], at mGlu4, the EC50 was determined as 2.5 ± 1.1 µM. Further, at mGlu8, the “mGlu8/4 EC50 ratio” value is on record as 6 and the EC50 came out at 14.1 ± 7.3 µM.

(Values after patent US9212196B2, “Hypophosphorous acid derivatives having antihyperalgic activity and biological applications thereof” (UNIVERSITE PARIS DESCARTES, priority 2011, dated 2015).)
